Results: US8357832B2, “F1B-TMIR plasmid vector and transgenic mouse” (National Health Research Institutes, priority 2009, dated 2013)

What was measured:
[1] = test system: TMIR expressing tissues (HSV1Δtk) of F1B-TMIR mice; assay: [131I]FIAU γ-camera imaging of F1B-TMIR transgenic mice; type: in vivo, mouse
Excerpt: FIG. 4. […] Image of young female mice #7, #29 (Right) was shown for comparison.
Carrier-free [^131I] (2′-fluoro-2′-deoxy-1-β-D-arabinofuranosyl-5-iodouracil) ([^131I]FIAU) was synthesized from 5-trimethylstannyl-1-(2′-deoxy-2′-fluoro-1-β-D-arabinofuranosyl)-uracil (FTAU) by an oxidative iododestannylation method as previously described (Deng W P, Yang W K, Lai W F, et al. Non-invasive in vivo imaging with radiolabelled FIAU for monitoring cancer gene therapy using herpes simplex virus type 1 thymidine kinase and ganciclovir. Eur J Nucl Med Mol Imaging. January 2004; 31 (1):99-109). The radiochemical purity of [^131I]FIAU was >95%, as determined by thin layer chromatograph (TLC) method on a silica gel coated aluminum sheet using ethyl acetate-ethanol mixture (90:10, v/v) as the mobile phase. A Siemens E.CAM dual-head γ-camera, equipped with custom-made 1 mm pinhole collimator, was used for the animal γ-imaging. To block the thyroid uptake of radioiodine, mice were injected with sodium iodine saline (0.9% sodium iodine in normal saline, 1 ml/animal) 15 min prior to the intraperitoneal injection of 11.1 MBq [^131I] FIAU. The animal was laid in the prone position and 4 cm distant from the pinhole center to provide a full coverage of the body. […] The image was scanned one week after injection of probe to ensure adequate clearance of unwanted background radioactivity. […]

[2] = test system: F1B-TMIR transfected CHO cells; assay: Luciferase activity assay after GCV treatment (sensitivity to GCV, functioning HSV1Δtk); type: cell-based, Chinese hamster; settings: low or high concentration of GCV (0.005 or 0.1 μg/ml), 72 h, normalized to β-gal
Protocol: FIG. 1. (A) Structure of the F1B-TMIR transgenic vector. The restriction sites mentioned in the construction method are shown. (B) Fluorescent pictures of CHO cells transiently transfected by F1B-TMIR vector. Scale bar=100 μm. (C) The luciferase activity in F1B-TMIR transfected CHO cells following the incubation with GCV. The data shown were the luciferase activity normalized to the β-gal activity from a co-transfected RSV-β-gal vector. Error bars represent mean+SEM, n=3, *P<0.05, compared to the untreated group.
Chinese hamster ovary […] (CHO-K1) were maintained in F-12 medium supplemented with 10% fetal bovine serum (FBS) and the antibiotics penicillin, streptomycin, and amophotericin B (PSA) in a 95% air and 5% CO2 humidified incubator. DNA vectors including a RSV β-galactosidase control vector for normalization of transfection efficiency were transfected into the cells using PolyFect (Qiagen) reagent by following manufacturer's protocol. […]
The TMIR vectors driven by CMV or F1B promoter were constructed as foregoing description. […] There was a decrease in the number of cells expressing GFP and in the intensity of fluorescence in F1B-TMIR transfected cells than cells transfected by CMV-TMIR (FIG. 1B) as a result of weaker transactivity by FIB promoter. […]

[3] = test system: CMV-TMIR transfected CHO cells; assay: as above; type: cell-based, Chinese hamster; settings: low or high concentration of GCV (0.005 or 0.1 μg/ml), 72 h, normalized to β-gal
[4] = test system: MDA-MB231 cells that constitutively express large amount of eGFP-tk; settings: cited from earlier work
[5] = test system: ZR75-1 cells that constitutively express low amount of eGFP-tk; settings: cited from earlier work

SMILES | uptake at head (γ imaging) ([1]; F1B-TMIR mice #2, #7, #29, one week after probe injection) | uptake in testis (γ imaging) ([1]; male F1B-TMIR mice, one week after intraperitoneal injection of 11.1 MBq probe, absent in female mice) | loss of luciferase activity [2] [%] | loss of luciferase activity [3] [%] | ED50 (the dose resulted in 50% of cell death after 7 days) [4] [ng/mL] | ED50 (the dose resulted in 50% of cell death after 7 days) [5]
O=c1[nH]c(=O)n([C@@H]2O[C@H](CO)[C@@H](O)[C@@H]2F)cc1[131I] [[^131I]FIAU, [^131I] (2′-fluoro-2′-deoxy-1-β-D-arabinofuranosyl-5-iodouracil)] | low uptake | strong uptake | – | – | – | –
Nc1nc(O)c2ncn(COC(CO)CO)c2n1 [GCV, Ganciclovir] | – | – | 35 | 45 | 5 | around 0.1 μg/ml
